# Test results taken from PubChem BioAssay (NCI).
#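 GI50 marks 50% less growth. TGI denotes the concentration required for complete inhibition of growth.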
# Columns and labels:
# Assay in all cases: DTP human tumour cell line panel, 384-well format
# TK-10 renal = system: TK-10 renal
# MOLT-4 leukemia = system: MOLT-4 leukemia
# BT-549 breast = system: BT-549 breast
# SF-268 CNS = system: SF-268 CNS
# HOP-92 NSCLC = system: HOP-92 NSCLC
# SF-295 CNS = system: SF-295 CNS
# SK-MEL-28 melanoma = system: SK-MEL-28 melanoma
# CAKI-1 renal = system: CAKI-1 renal
# SF-539 CNS = system: SF-539 CNS
# EKVX NSCLC = system: EKVX NSCLC
# SK-OV-3 ovarian = system: SK-OV-3 ovarian
# K-562 leukemia = system: K-562 leukemia
# OVCAR-4 ovarian = system: OVCAR-4 ovarian
# T-47D breast = system: T-47D breast
# MDA-MB-231 breast = system: MDA-MB-231 breast
# MDA-MB-468 breast = system: MDA-MB-468 breast
# NCI-H460 NSCLC = system: NCI-H460 NSCLC
# OVCAR-8 ovarian = system: OVCAR-8 ovarian
# SNB-75 CNS = system: SNB-75 CNS
# SNB-19 CNS = system: SNB-19 CNS
# DU-145 prostate = system: DU-145 prostate
# HS 578T breast = system: HS 578T breast
# U251 glioblastoma = system: U251 glioblastoma
# NCI-H322M lung = system: NCI-H322M lung
# 786-0 renal = system: 786-0 renal
# HCC-2998 colon = system: HCC-2998 colon
# HCT-116 colon = system: HCT-116 colon
# HCT-15 colon = system: HCT-15 colon
# UO-31 renal = system: UO-31 renal
# UACC-257 melanoma = system: UACC-257 melanoma
# HOP-62 NSCLC = system: HOP-62 NSCLC
# CCRF-CEM leukemia = system: CCRF-CEM leukemia
# MALME-3M melanoma = system: MALME-3M melanoma
# NCI/ADR-RES ovarian = system: NCI/ADR-RES ovarian
# SW-620 colon = system: SW-620 colon
# SN12C renal = system: SN12C renal
# A498 renal = system: A498 renal
# COLO 205 colon = system: COLO 205 colon
# A549 NSCLC = system: A549 NSCLC
# OVCAR-3 ovarian = system: OVCAR-3 ovarian
# RXF 393 renal = system: RXF 393 renal
# OVCAR-5 ovarian = system: OVCAR-5 ovarian
# HL-60(TB) leukemia = system: HL-60(TB) leukemia
# NCI-H23 lung = system: NCI-H23 lung
# IGROV1 ovarian = system: IGROV1 ovarian
# ACHN renal = system: ACHN renal
# UACC-62 melanoma = system: UACC-62 melanoma
# SK-MEL-2 melanoma = system: SK-MEL-2 melanoma
# NCI-H522 lung = system: NCI-H522 lung
# MDA-MB-435 melanoma = system: MDA-MB-435 melanoma
# M14 melanoma = system: M14 melanoma
# KM12 colon = system: KM12 colon
# SK-MEL-5 melanoma = system: SK-MEL-5 melanoma
# NCI-H226 lung = system: NCI-H226 lung
# PC-3 prostate = system: PC-3 prostate
# RPMI-8226 leukemia = system: RPMI-8226 leukemia
# HT29 colon = system: HT29 colon
# SR leukemia = system: SR leukemia
# MCF7 breast = system: MCF7 breast
smiles,measurement,setting,value
O=C1CCC(N2Cc3cc(CNC(=O)C(F)(F)c4ccc(Cl)cc4)ccc3C2=O)C(=O)N1 (stereo not given),GI50,TK-10 renal,> 100 µM
same,TGI,TK-10 renal,> 100 µM
same,GI50,MOLT-4 leukemia,< 0.01 µM
same,TGI,MOLT-4 leukemia,0.0133 µM
same,GI50,BT-549 breast,0.0613 µM
same,TGI,BT-549 breast,32.2 µM
same,GI50,SF-268 CNS,> 100 µM
same,TGI,SF-268 CNS,> 100 µM
same,GI50,HOP-92 NSCLC,0.21 µM
same,TGI,HOP-92 NSCLC,> 100 µM
same,GI50,SF-295 CNS,> 100 µM
same,TGI,SF-295 CNS,> 100 µM
same,GI50,SK-MEL-28 melanoma,> 100 µM
same,TGI,SK-MEL-28 melanoma,> 100 µM
same,GI50,CAKI-1 renal,> 100 µM
same,TGI,CAKI-1 renal,> 100 µM
same,GI50,SF-539 CNS,> 100 µM
same,TGI,SF-539 CNS,> 100 µM
same,GI50,EKVX NSCLC,> 100 µM
same,TGI,EKVX NSCLC,> 100 µM
same,GI50,SK-OV-3 ovarian,> 100 µM
same,TGI,SK-OV-3 ovarian,> 100 µM
same,GI50,K-562 leukemia,68.4 µM
same,TGI,K-562 leukemia,> 100 µM
same,GI50,OVCAR-4 ovarian,> 100 µM
same,TGI,OVCAR-4 ovarian,> 100 µM
same,GI50,T-47D breast,0.0216 µM
same,TGI,T-47D breast,17.8 µM
same,GI50,MDA-MB-231 breast,0.087 µM
same,TGI,MDA-MB-231 breast,> 100 µM
same,GI50,MDA-MB-468 breast,< 0.01 µM
same,TGI,MDA-MB-468 breast,0.0301 µM
same,GI50,NCI-H460 NSCLC,> 100 µM
same,TGI,NCI-H460 NSCLC,> 100 µM
same,GI50,OVCAR-8 ovarian,0.059 µM
same,TGI,OVCAR-8 ovarian,> 100 µM
same,GI50,SNB-75 CNS,0.463 µM
same,TGI,SNB-75 CNS,> 100 µM
same,GI50,SNB-19 CNS,> 100 µM
same,TGI,SNB-19 CNS,> 100 µM
same,GI50,DU-145 prostate,> 100 µM
same,TGI,DU-145 prostate,> 100 µM
same,GI50,HS 578T breast,0.0781 µM
same,TGI,HS 578T breast,> 100 µM
same,GI50,U251 glioblastoma,> 100 µM
same,TGI,U251 glioblastoma,> 100 µM
same,GI50,NCI-H322M lung,> 100 µM
same,TGI,NCI-H322M lung,> 100 µM
same,GI50,786-0 renal,> 100 µM
same,TGI,786-0 renal,> 100 µM
same,GI50,HCC-2998 colon,0.0908 µM
same,TGI,HCC-2998 colon,> 100 µM
same,GI50,HCT-116 colon,> 100 µM
same,TGI,HCT-116 colon,> 100 µM
same,GI50,HCT-15 colon,0.744 µM
same,TGI,HCT-15 colon,> 100 µM
same,GI50,UO-31 renal,> 100 µM
same,TGI,UO-31 renal,> 100 µM
same,GI50,UACC-257 melanoma,> 100 µM
same,TGI,UACC-257 melanoma,> 100 µM
same,GI50,HOP-62 NSCLC,0.835 µM
same,TGI,HOP-62 NSCLC,> 100 µM
same,GI50,CCRF-CEM leukemia,< 0.01 µM
same,TGI,CCRF-CEM leukemia,0.015 µM
same,GI50,MALME-3M melanoma,0.101 µM
same,TGI,MALME-3M melanoma,> 100 µM
same,GI50,NCI/ADR-RES ovarian,24.7 µM
same,TGI,NCI/ADR-RES ovarian,> 100 µM
same,GI50,SW-620 colon,0.0885 µM
same,TGI,SW-620 colon,> 100 µM
same,GI50,SN12C renal,> 100 µM
same,TGI,SN12C renal,> 100 µM
same,GI50,A498 renal,> 100 µM
same,TGI,A498 renal,> 100 µM
same,GI50,COLO 205 colon,0.142 µM
same,TGI,COLO 205 colon,> 100 µM
same,GI50,A549 NSCLC,> 100 µM
same,TGI,A549 NSCLC,> 100 µM
same,GI50,OVCAR-3 ovarian,> 100 µM
same,TGI,OVCAR-3 ovarian,> 100 µM
same,GI50,RXF 393 renal,> 100 µM
same,TGI,RXF 393 renal,> 100 µM
same,GI50,OVCAR-5 ovarian,> 100 µM
same,TGI,OVCAR-5 ovarian,> 100 µM
same,GI50,HL-60(TB) leukemia,< 0.01 µM
same,TGI,HL-60(TB) leukemia,0.0106 µM
same,GI50,NCI-H23 lung,> 100 µM
same,TGI,NCI-H23 lung,> 100 µM
same,GI50,IGROV1 ovarian,0.568 µM
same,TGI,IGROV1 ovarian,> 100 µM
Nc1nc(OCc2ccccc2)c2[nH]cnc2n1,GI50,TK-10 renal,15.8 µM
same,TGI,TK-10 renal,60.7 µM
same,GI50,MOLT-4 leukemia,28.9 µM
same,GI50,BT-549 breast,26.9 µM
same,TGI,BT-549 breast,78.5 µM
same,GI50,SF-268 CNS,66.3 µM
same,GI50,HOP-92 NSCLC,36.8 µM
same,GI50,SK-MEL-28 melanoma,66.9 µM
same,GI50,CAKI-1 renal,20.8 µM
same,TGI,CAKI-1 renal,55.9 µM
same,GI50,SF-539 CNS,34.7 µM
same,GI50,ACHN renal,46.1 µM
same,GI50,UACC-62 melanoma,31.4 µM
same,GI50,EKVX NSCLC,43.3 µM
same,GI50,SK-MEL-2 melanoma,37.2 µM
same,TGI,SK-MEL-2 melanoma,65.8 µM
same,GI50,NCI-H522 lung,20.8 µM
same,TGI,NCI-H522 lung,60.7 µM
same,GI50,SK-OV-3 ovarian,23.2 µM
same,TGI,SK-OV-3 ovarian,50.1 µM
same,GI50,MDA-MB-435 melanoma,52.4 µM
same,GI50,M14 melanoma,30.4 µM
same,TGI,M14 melanoma,95.8 µM
same,GI50,OVCAR-4 ovarian,64.4 µM
same,GI50,T-47D breast,34.5 µM
same,GI50,KM12 colon,66.1 µM
same,GI50,MDA-MB-231 breast,34.6 µM
same,GI50,MDA-MB-468 breast,25 µM
same,TGI,MDA-MB-468 breast,61 µM
same,GI50,NCI-H460 NSCLC,37.8 µM
same,GI50,OVCAR-8 ovarian,66.4 µM
same,GI50,SNB-75 CNS,19.6 µM
same,TGI,SNB-75 CNS,76.5 µM
same,GI50,DU-145 prostate,52.3 µM
same,GI50,HS 578T breast,16.6 µM
same,TGI,HS 578T breast,43.7 µM
same,GI50,U251 glioblastoma,38.3 µM
same,GI50,NCI-H322M lung,57.5 µM
same,GI50,786-0 renal,35.9 µM
same,GI50,SK-MEL-5 melanoma,27.9 µM
same,GI50,HCC-2998 colon,30.8 µM
same,GI50,HCT-15 colon,28.4 µM
same,GI50,NCI-H226 lung,29.3 µM
same,TGI,NCI-H226 lung,80.7 µM
same,GI50,UACC-257 melanoma,61.6 µM
same,GI50,PC-3 prostate,55.2 µM
same,GI50,RPMI-8226 leukemia,18.5 µM
same,TGI,RPMI-8226 leukemia,37.8 µM
same,GI50,HT29 colon,53.3 µM
same,GI50,HOP-62 NSCLC,36.7 µM
same,GI50,CCRF-CEM leukemia,28.4 µM
same,TGI,CCRF-CEM leukemia,88.9 µM
same,GI50,SR leukemia,30.9 µM
same,TGI,SR leukemia,78.4 µM
same,GI50,MALME-3M melanoma,30.9 µM
same,TGI,MALME-3M melanoma,79.1 µM
same,GI50,MCF7 breast,56.2 µM
same,GI50,A498 renal,19.6 µM
same,TGI,A498 renal,91.9 µM
same,GI50,COLO 205 colon,65.7 µM
same,GI50,A549 NSCLC,64.5 µM
same,GI50,OVCAR-3 ovarian,69.1 µM
same,GI50,RXF 393 renal,32.5 µM
same,TGI,RXF 393 renal,88.7 µM
same,GI50,OVCAR-5 ovarian,70.4 µM
same,GI50,HL-60(TB) leukemia,30.2 µM
same,TGI,HL-60(TB) leukemia,78.3 µM
same,GI50,NCI-H23 lung,31.8 µM
same,GI50,IGROV1 ovarian,25.7 µM
same,TGI,IGROV1 ovarian,90.5 µM
